Experimental data taken from patent US20190274308A1, “METHOD FOR PROTECTING PLANTS FROM PESTS USING A PESTICIDE COMPOSITION WITH ADJUSTABLE PERSISTENCE AND DEGRADABILITY” (Flechsig Patent Company LLC, priority 2016, published 2019).

Type: physicochemical
Excerpt: A further characterizing parameter of the soil is the content of microorganisms, in particular bacteria, fungi and microfauna.
Tables 5 and 6 below indicate the degradation times of exemplary poly(alkyl)guanidines depending on various contents of microorganisms in the soil.
These determinations were obtained basically according to established methods, in particular as described in “Bodenbiologische Arbeitsmethoden”, 2nd revised and expanded edition, F. Schinner, E. Kandeler, R. Öhlinger, R. Margesin (eds.) (1993).
To determine the total bacterial count according to Trolldenier (1972), a soil suspension is applied onto a defined area of a slide and the dried soil film is stained with acridine orange. The bacterial count is determined in a plurality of counting fields under the fluorescence microscope and from this the total bacterial count of the soil sample is calculated.
The ergosterol of the soil fungi is saponified with KOH, extracted with n-hexane in the separating funnel, dried at 40° C. in the rotary evaporator and then dissolved in methanol. Detection is achieved by means of HPLC at 282 nm. The procedure is based on the method of Zelles et al. (1987) and was modified in a few points.
For the sake of simplicity calculation is performed using the dimensions of the dishes. At least 10 individuals per species should be measured. The resulting volume mean value can be equated numerically with the weight, as the specific mass of the microfauna is approximately 1 g cm^−3.
In the case of poly(hexamethylene)guanidine [C6 PHMG], the “Difference days min/max degradation time, bact., fungi, microfauna” value (shortened to “Difference days min/max degradation time”) was 30 days.
In the case of poly(octamethylene)guanidine [C8 POMG], the “Difference days min/max degradation time” value was 36 days.
In the case of poly(tetramethylene)guanidine [C4 PTMG], the “Difference days min/max degradation time” value was 22 days.
